Data on 22 compounds can be found in PubChem BioAssay AID192 (DTP/NCI, 2004).

“And” between values parts separate entries of the source, which are not always exact repeats. Identical values can stand only once. Toxic doses and inconclusive results are not listed.

The test system of this assay is BDF1 mice, B16 melanoma ip, median survival T/C. As to the kind of experiment: NCI In Vivo Anticancer Drug Screen. Data for tumor model B16 Melanoma (intraperitoneal) in B6D2F1 (BDF1) mice. As to conditions: endpoint: median survival time, higher = longer survival. The essentials: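 Survival or tumor size is measured after treatment of tumor-bearing mice and normalised to the vehicle-treated control group.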

[1] abbreviates: dose: 3.12 mg/kg/injection, schedule: Q01DX009 (ip), vehicle: saline.
[2] abbreviates: dose: 25.0 mg/kg/injection, schedule: Q01DX009 (ip), vehicle: saline.
Setting [3] is: dose: 50.0 mg/kg/injection, schedule: Q01DX009 (ip), vehicle: saline.
Setting [4] is: dose: 25.0 mg/kg/injection, schedule: Q01DX009 (ip), vehicle: saline with Tween-80.
[5] abbreviates: dose: 50.0 mg/kg/injection, schedule: Q01DX009 (ip), vehicle: saline with Tween-80.
[6] abbreviates: dose: 100.0 mg/kg/injection, schedule: Q01DX009 (ip), vehicle: saline with Tween-80.
The mark [7] stands for this setting: dose: 200.0 mg/kg/injection, schedule: Q01DX009 (ip), vehicle: saline with Tween-80.
Setting [8] is: dose: 400.0 mg/kg/injection, schedule: Q01DX009 (ip), vehicle: saline with Tween-80.
[9] abbreviates: dose: 100.0 mg/kg/injection, schedule: Q01DX009 (ip), vehicle: Klucel (hydroxypropylcellulose) (HPC).
[10] abbreviates: dose: 200.0 mg/kg/injection, schedule: Q01DX009 (ip), vehicle: Klucel (hydroxypropylcellulose) (HPC).

Consider `Oc1ccc(O)cc1`, for which the T/C reads like this: (dose: 0.78 mg/kg/injection, schedule: Q01DX009 (ip), vehicle: saline) 92 % of control; (dose: 1.56 mg/kg/injection, schedule: Q01DX009 (ip), vehicle: saline) 89 % of control; under setting [1], 89 % of control; under setting [2], 89 % of control and 117 % of control; under setting [3], 96 % of control and 118 % of control.
Take `COc1cc(Cc2nccc3cc(OC)c(OC)cc23)c(C(C)=O)cc1OC`: the T/C runs as follows: under setting [1], 93 % of control; (dose: 6.25 mg/kg/injection, schedule: Q01DX009 (ip), vehicle: saline) 102 % of control; (dose: 12.5 mg/kg/injection, schedule: Q01DX009 (ip), vehicle: saline) 97 % of control; under setting [2], 103 % of control; under setting [3], 100 % of control.
As for `C/C(=C\c1ccc(C)cc1)[N+](=O)[O-]`, the T/C is 89 % of control under setting [4] and 96 % of control under setting [5].
`COc1ccc([I+]c2cccc(Cl)c2)cc1Cl`: the T/C (dose: 6.25 mg/kg/injection, schedule: Q01DX009 (ip), vehicle: saline with Tween-80) is 112 % of control; the T/C (dose: 12.5 mg/kg/injection, schedule: Q01DX009 (ip), vehicle: saline with Tween-80) was 112 % of control; the T/C under setting [4] is 104 % of control.
Consider `O=C(c1ccccc1)C1NC1c1ccccc1` (centres undefined), for which the T/C reads like this: (dose: 20.0 mg/kg/injection, schedule: Q01DX009 (ip), vehicle: Klucel (hydroxypropylcellulose) (HPC)) 100 % of control; (dose: 40.0 mg/kg/injection, schedule: Q01DX009 (ip), vehicle: Klucel (hydroxypropylcellulose) (HPC)) 97 % of control; (dose: 80.0 mg/kg/injection, schedule: Q01DX009 (ip), vehicle: Klucel (hydroxypropylcellulose) (HPC)) 94 % of control.
In the case of `CCOc1cc([N+](=O)[O-])c(OCC)cc1Cl`, the T/C under setting [6] was 94 % of control, the T/C under setting [7] is 97 % of control and the T/C under setting [8] is 96 % of control.
For `CCOC(=O)C(=Cc1ccccc1Cl)C(=O)OCC`, the T/C (dose: 50.0 mg/kg/injection, schedule: Q04DX003 (ip), vehicle: Klucel (hydroxypropylcellulose) (HPC)) was 99 % of control; the T/C (dose: 100.0 mg/kg/injection, schedule: Q04DX003 (ip), vehicle: Klucel (hydroxypropylcellulose) (HPC)) was 107 % of control; the T/C (dose: 200.0 mg/kg/injection, schedule: Q04DX003 (ip), vehicle: Klucel (hydroxypropylcellulose) (HPC)) is 95 % of control.
`CCCCCCCCCC(=O)CCCCCC`: the T/C by setting is: under setting [9], 90 % of control; under setting [10], 89 % of control.
`CC(C)CCC[C@@H](C)[C@H]1CC[C@H]2[C@@H]3CC=C4C[C@@H](OC(=O)Cc5ccc(N(CCCl)CCCl)cc5)CC[C@]4(C)[C@H]3CC[C@]12C`: the T/C reads like this: (dose: 50.0 mg/kg/injection, schedule: Q01DX009 (oral), vehicle: saline) 108 % of control; (dose: 100.0 mg/kg/injection, schedule: Q01DX009 (oral), vehicle: saline) 104 % of control; (dose: 200.0 mg/kg/injection, schedule: Q01DX009 (oral), vehicle: saline) 110 % of control; (dose: 400.0 mg/kg/injection, schedule: Q01DX009 (oral), vehicle: saline) 104 % of control; (dose: 800.0 mg/kg/injection, schedule: Q01DX009 (oral), vehicle: saline) 110 % of control.
Turning to `CCCCCCCCCCCCCOC(=O)CC(C(=O)OCCCCCCCCCCCCC)S(=O)(=O)O` (centres undefined), the T/C (dose: 12.5 mg/kg/injection, schedule: Q01DX009 (ip), vehicle: Klucel (hydroxypropylcellulose) (HPC)) is 106 % of control; the T/C (dose: 25.0 mg/kg/injection, schedule: Q01DX009 (ip), vehicle: Klucel (hydroxypropylcellulose) (HPC)) was 108 % of control; the T/C (dose: 50.0 mg/kg/injection, schedule: Q01DX009 (ip), vehicle: Klucel (hydroxypropylcellulose) (HPC)) is 106 % of control; the T/C under setting [9] is 93 % of control; the T/C under setting [10] is 111 % of control.
As to `COC1CC(CC2CCC(C)C(C(C)C(=O)O)O2)OC2(OC(C)(C3CCC(C)(C4OC(C5OC(O)(CO)C(C)CC5C)CC4C)O3)CC2C)C1C` (centres undefined), the T/C (dose: 0.31 mg/kg/injection, schedule: Q01DX009 (ip), vehicle: Klucel (hydroxypropylcellulose) (HPC)) is 102 % of control; the T/C (dose: 0.63 mg/kg/injection, schedule: Q01DX009 (ip), vehicle: Klucel (hydroxypropylcellulose) (HPC)) was 89 % of control; the T/C (dose: 1.25 mg/kg/injection, schedule: Q01DX009 (ip), vehicle: Klucel (hydroxypropylcellulose) (HPC)) was 92 % of control; the T/C (dose: 2.5 mg/kg/injection, schedule: Q01DX009 (ip), vehicle: Klucel (hydroxypropylcellulose) (HPC)) was 92 % of control.
Consider `Cc1cc2ncn(CC(=O)O)c2cc1C`, for which the T/C reads like this: under setting [4], 95 % of control; under setting [5], 97 % of control; under setting [6], 97 % of control.
Turning to `O=C1C=CC(=O)c2c(O)c(CO)c(CO)c(O)c21`, the T/C by setting is: (dose: 0.39 mg/kg/injection, schedule: Q01DX009 (ip), vehicle: Klucel (hydroxypropylcellulose) (HPC)) 98 % of control; (dose: 0.78 mg/kg/injection, schedule: Q01DX009 (ip), vehicle: Klucel (hydroxypropylcellulose) (HPC)) 89 % of control; (dose: 1.56 mg/kg/injection, schedule: Q01DX009 (ip), vehicle: Klucel (hydroxypropylcellulose) (HPC)) 87 % of control.
For `Cc1ccc(NC(=O)C(Cl)(Cl)Cl)cc1C`, the T/C by setting is: under setting [9], 96 % of control; under setting [10], 96 % of control; (dose: 400.0 mg/kg/injection, schedule: Q01DX009 (ip), vehicle: Klucel (hydroxypropylcellulose) (HPC)) 96 % of control.
Regarding `COc1cccc2c1C(=O)c1c(O)c3c(c(O)c1C2=O)C[C@@](O)(C(=O)COC(=O)CCCCC(=O)O)C[C@@H]3OC1CC(NC(=O)C(F)(F)F)C(O)C(C)O1` (some centres undefined), the T/C by setting is: (dose: 18.75 mg/kg/injection, schedule: Q01DX001 (ip), vehicle: other) 175 % of control; (dose: 37.5 mg/kg/injection, schedule: Q01DX001 (ip), vehicle: other) 168 % of control and 205 % of control; (dose: 75.0 mg/kg/injection, schedule: Q01DX001 (ip), vehicle: other) 205 % of control and 271 % of control; (dose: 150.0 mg/kg/injection, schedule: Q01DX001 (ip), vehicle: other) 150 % of control.
In the case of `O=c1c(O)c(-c2ccccc2)oc2ccccc12`, the T/C is, setting by setting: under setting [6], 94 % of control; under setting [7], 96 % of control; under setting [8], 91 % of control; (dose: 800.0 mg/kg/injection, schedule: Q01DX009 (ip), vehicle: saline with Tween-80) 93 % of control.
As for `CCSCCC1(CCC(C)C)C(=O)NC(=Nc2ccccc2)NC1=O` (centres undefined), the T/C under setting [5] is 91 % of control, the T/C under setting [6] was 89 % of control and the T/C under setting [8] was 96 % of control.
On to `CCN(CC)CCCC(C)NCCCCNC(C)CCCN(CC)CC` (centres undefined), for which the T/C is 96 % of control (dose: 4.69 mg/kg/injection, schedule: Q01DX009 (ip), vehicle: alcohol); 115 % of control (dose: 6.25 mg/kg/injection, schedule: Q01DX009 (ip), vehicle: alcohol); 104 % of control (dose: 9.38 mg/kg/injection, schedule: Q01DX009 (ip), vehicle: alcohol); 122 % of control (dose: 11.0 mg/kg/injection, schedule: Q01DX009 (ip), vehicle: water); 88 % of control (dose: 12.5 mg/kg/injection, schedule: Q01DX009 (ip), vehicle: alcohol); 94 % of control (dose: 16.5 mg/kg/injection, schedule: Q01DX009 (ip), vehicle: water). For the same compound, the T/C (dose: 25.0 mg/kg/injection, schedule: Q01DX009 (ip), vehicle: water) was 87 % of control and 224 % of control.
`COc1ccccc1NC(=O)Oc1ccc(OCc2ccccc2)cc1`: the T/C by setting is: under setting [6], 105 % of control; under setting [7], 97 % of control; under setting [8], 92 % of control.
Consider `CCCCCCCCCCCCCCCCCCNC(=O)Nc1ccccc1CC`, for which the T/C under setting [5] is 86 % of control.
`Cc1cccc(C)c1NC(=O)C(C)C`: the T/C runs as follows: under setting [6], 100 % of control; under setting [7], 102 % of control; under setting [8], 95 % of control.
As to `C=C1CCN(c2ccc(Br)cc2)C1=O`, the T/C was 95 % of control (dose: 4.0 mg/kg/injection, schedule: Q01DX009 (ip), vehicle: saline + alcohol); 101 % of control (dose: 8.0 mg/kg/injection, schedule: Q01DX009 (ip), vehicle: saline + alcohol); 109 % of control (dose: 16.0 mg/kg/injection, schedule: Q01DX009 (ip), vehicle: saline + alcohol); 95 % of control (dose: 32.0 mg/kg/injection, schedule: Q01DX009 (ip), vehicle: saline + alcohol); 101 % of control (dose: 64.0 mg/kg/injection, schedule: Q01DX009 (ip), vehicle: saline + alcohol).
